Data as given in US12570655B2, “Cysteine covalent modifiers of AKT1 and uses thereof” (Terremoto Biosciences, Inc., priority 2023, dated 2026).
pIC50: −log10 of the molar value. Where two headings read alike, the source gives them in different places.

Experiments:
Format in all cases: cell-based
[1] = system: LAPC4 prostate cancer cells; assay: Antiproliferative effects in LAPC4 cells (CellTiter Glo); conditions: LAPC4 cells (AKT1 E17K allele), read-out: LAPC4 proliferation IC50
Procedure, shortened: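 Growth inhibition is gauged by intracellular ATP content, measured with CellTiter Glo 72 h after compound addition to 1,000 seeded cells per well. IC50 derives from a Hill equation fit.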

AKT1 E17K = target: T1, AKT1 E17K (Homo sapiens, UniProt P31749, E17K); assay: Live cell AKT1 E17K target engagement by NanoBRET competitive probe displacement; conditions: HEK293 cells transfected with kinase-NanoLuciferase fusion, 2 h at 37° C.
T1 construct: expressed in transfected cells; host or cells: HEK293
Procedure, shortened: (§1)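 Steps: overnight transfection of HEK293 with kinase-NanoLuc plasmids; addition of compound dilutions and tracer (~EC50); 2 h incubation at 37 °C; substrate plus extracellular luciferase inhibitor; luminescence at 460 and 600 nm. IC50 values came from fitting the BRET ratio to a Hill equation.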

AKT2 = target: T2, AKT2 (Homo sapiens, UniProt P31751); assay: Live cell AKT2 target engagement by NanoBRET competitive probe displacement; conditions: HEK293 cells transfected with kinase-NanoLuciferase fusion, 2 h at 37° C.
T2 construct: expressed in transfected cells; host or cells: HEK293
Procedure, shortened: as §1

AKT1 WT = target: T3, AKT1 WT (Homo sapiens, UniProt P31749); assay: Live cell AKT1 WT target engagement by NanoBRET competitive probe displacement; conditions: HEK293 cells transfected with kinase-NanoLuciferase fusion, 2 h at 37° C.
T3 construct: expressed in transfected cells; host or cells: HEK293
Procedure, shortened: as §1

T1 sequence (P31749 whole entry E17K, the tested form may be a part): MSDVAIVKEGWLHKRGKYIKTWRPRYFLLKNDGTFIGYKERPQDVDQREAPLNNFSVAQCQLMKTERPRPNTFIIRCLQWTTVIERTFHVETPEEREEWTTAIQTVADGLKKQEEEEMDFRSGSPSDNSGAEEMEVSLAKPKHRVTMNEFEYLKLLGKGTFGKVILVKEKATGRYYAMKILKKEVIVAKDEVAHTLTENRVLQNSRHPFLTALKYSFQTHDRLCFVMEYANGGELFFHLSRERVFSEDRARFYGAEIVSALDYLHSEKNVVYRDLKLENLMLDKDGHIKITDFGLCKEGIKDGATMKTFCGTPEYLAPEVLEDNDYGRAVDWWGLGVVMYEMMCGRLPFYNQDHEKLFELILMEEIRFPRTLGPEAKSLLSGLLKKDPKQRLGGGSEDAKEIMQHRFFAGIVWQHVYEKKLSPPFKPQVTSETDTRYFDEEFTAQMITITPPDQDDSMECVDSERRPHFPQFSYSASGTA
T3 sequence (P31749 whole entry, the tested form may be a part): as the sequence (P31749 whole entry E17K, the tested form may be a part) above, with K17E counted along it
T2 sequence (P31751 whole entry, the tested form may be a part): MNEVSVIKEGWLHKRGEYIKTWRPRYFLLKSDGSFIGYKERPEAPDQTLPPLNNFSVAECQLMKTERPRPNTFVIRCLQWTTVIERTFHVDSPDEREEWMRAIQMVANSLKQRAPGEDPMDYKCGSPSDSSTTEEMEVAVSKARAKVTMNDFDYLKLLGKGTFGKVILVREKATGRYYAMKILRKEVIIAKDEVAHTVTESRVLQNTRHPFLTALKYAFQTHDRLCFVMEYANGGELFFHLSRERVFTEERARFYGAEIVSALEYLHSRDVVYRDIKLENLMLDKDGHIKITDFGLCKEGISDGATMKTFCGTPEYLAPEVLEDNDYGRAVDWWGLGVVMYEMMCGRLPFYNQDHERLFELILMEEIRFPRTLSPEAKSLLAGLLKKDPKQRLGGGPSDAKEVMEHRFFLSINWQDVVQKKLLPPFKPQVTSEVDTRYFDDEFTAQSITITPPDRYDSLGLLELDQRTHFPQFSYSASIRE

pIC50 ([1]; 72 h)	pIC50 (AKT1 E17K)	pIC50 (AKT2)	pIC50 (AKT1 WT)	pIC50 ([1]; Homo sapiens, LAPC4, 72 h)	SMILES
7.11	7.34	7.02	6.55	–	C=CC(=O)N1CCC(N[C@H]2CC(O)c3cc(-n4c(-c5cccnc5N)nc5ccc(-n6cccn6)nc54)ccc32)CC1 (single isomer, unassigned) [Example 219, 1-(4-(((1S,3*)-5-(2-(2-aminopyridin-3-yl)-5-(1H-pyrazol-1-yl)-3H-imidazo[4,5-b]pyridin-3-yl)-3-hydroxy-2,3-dihydro-1H-inden-1-yl)amino)piperidin-1-yl)prop-2-en-1-one]
6.28	7.42	6.45	6.15	–	C=CC(=O)N1CCC(NC2CCc3cc(-n4c(-c5cccnc5N)nc5ccc(C6CC6(F)F)nc54)ccc32)CC1 (single isomer, unassigned) [Example 245, 1-(4-(((*)-5-(2-(2-aminopyridin-3-yl)-5-((*)-2,2-difluorocyclopropyl)-3H-imidazo[4,5-b]pyridin-3-yl)-2,3-dihydro-1H-inden-1-yl)amino)piperidin-1-yl)prop-2-en-1-one]
–	7.66	6.95	6.29	6.46	C=CC(=O)N1CCC(N[C@H]2CCc3cc(-n4c(-c5cccnc5N)nc5cc(F)c(-n6cccn6)nc54)ccc32)CC1 [Example 313, 1-(4-{[(1S)-5-[2-(2-aminopyridin-3-yl)-6-fluoro-5-(pyrazol-1-yl)imidazo[4,5-b]pyridin-3-yl]-2,3-dihydro-1H-inden-1-yl]amino}piperidin-1-yl)prop-2-en-1-one]
–	7.75	7.57	6.98	6.74	C=CC(=O)N1CCC(F)(CN[C@H]2CCc3cc(-n4c(-c5cccnc5N)nc5ccc(-n6cccn6)nc54)ccc32)CC1 [Example 184, (S)-1-(4-(((5-(2-(2-aminopyridin-3-yl)-5-(1H-pyrazol-1-yl)-3H-imidazo[4,5-b]pyridin-3-yl)-2,3-dihydro-1H-inden-1-yl)amino)methyl)-4-fluoropiperidin-1-yl)prop-2-en-1-one]
6.33	7.69	7.16	5.59	–	C=CC(=O)N1CCC(N[C@@H]2c3ccc(-n4c(-c5ccccc5F)nc5ccc(-n6cccn6)nc54)cc3CC2F)C[C@H]1C (single isomer, unassigned) [Example 317, 1-((2R,4*)-4-(((1R,2*)-2-fluoro-5-(2-(2-fluorophenyl)-5-(1H-pyrazol-1-yl)-3H-imidazo[4,5-b]pyridin-3-yl)-2,3-dihydro-1H-inden-1-yl)amino)-2-methylpiperidin-1-yl)prop-2-en-1-one]
–	6.95	6.52	7.38	6.94	Nc1ncccc1-c1nc2ccc(-n3cccn3)nc2n1-c1ccc2c(c1)CC[C@@H]2NC1CCN(C(=O)[C@H]2CO2)CC1 [Example 122, 3-{3-[(1S)-1-({1-[(2R)-oxirane-2-carbonyl]piperidin-4-yl}amino)-2,3-dihydro-1H-inden-5-yl]-5-(pyrazol-1-yl)imidazo[4,5-b]pyridin-2-yl}pyridin-2-amine]
–	7.02	6.04	5.88	6.28	C=CC(=O)N1CCC(N[C@H]2CCc3cc(-n4c(-c5cccnc5N)nc5ccc(N6CC7CCC(C6)O7)nc54)ccc32)CC1 [Example 258, 1-(4-{[(1S)-5-[2-(2-aminopyridin-3-yl)-5-{8-oxa-3-azabicyclo[3.2.1]octan-3-yl}imidazo[4,5-b]pyridin-3-yl]-2,3-dihydro-1H-inden-1-yl]amino}piperidin-1-yl)prop-2-en-1-one]
–	6.73	6.05	7.63	6.09	C=CC(=O)N1CCC(N[C@H]2CCc3cc(-n4c(-c5cccnc5N)nc5ccc(-c6cnccn6)nc54)ccc32)CC1 [Example 120, (S)-1-(4-((5-(2-(2-aminopyridin-3-yl)-5-(pyrazin-2-yl)-3H-imidazo[4,5-b]pyridin-3-yl)-2,3-dihydro-1H-inden-1-yl)amino)piperidin-1-yl)prop-2-en-1-one]
–	8.14	7.54	7.33	7.19	C=CC(=O)N1CCC(N[C@H]2CCc3cc(-n4c(-c5cccnc5N)nc5ccc(-c6cnn(C(F)F)c6)nc54)ccc32)CC1 [Example 187, 1-(4-{[(1S)-5-[2-(2-aminopyridin-3-yl)-5-[1-(difluoromethyl)pyrazol-4-yl]imidazo[4,5-b]pyridin-3-yl]-2,3-dihydro-1H-inden-1-yl]amino}piperidin-1-yl)prop-2-en-1-one]
6.48	7.92	7.15	6.50	–	C=CC(=O)N1CCC(N[C@H]2CC(F)c3cc(-n4c(-c5cccnc5N)nc5ccc(-n6cccn6)nc54)ccc32)CC1 (single isomer, unassigned) [Example 234, 1-(4-(((1S,3*)-5-(2-(2-aminopyridin-3-yl)-5-(1H-pyrazol-1-yl)-3H-imidazo[4,5-b]pyridin-3-yl)-3-fluoro-2,3-dihydro-1H-inden-1-yl)amino)piperidin-1-yl)prop-2-en-1-one]
–	7.76	7.01	6.66	6.82	C=CC(=O)N1CCC(N[C@H]2CCc3cc(-n4c(-c5cccnc5N)nc5ccc(-n6ccc(C)n6)nc54)ccc32)CC1 [Example 243, 1-(4-{[(1S)-5-[2-(2-aminopyridin-3-yl)-5-(3-methylpyrazol-1-yl)imidazo[4,5-b]pyridin-3-yl]-2,3-dihydro-1H-inden-1-yl]amino}piperidin-1-yl)prop-2-en-1-one]
–	8.02	7.69	8.12	7.74	C=CC(=O)Nc1ccc(F)cc1C(=O)N[C@H]1CCc2cc(-n3c(-c4cccnc4N)nc4ccc(-n5cccn5)nc43)ccc21 [Example 20, N-[(1S)-5-[2-(2-aminopyridin-3-yl)-5-(pyrazol-1-yl)imidazo[4,5-b]pyridin-3-yl]-2,3-dihydro-1H-inden-1-yl]-5-fluoro-2-(prop-2-enamido)benzamide]
–	8.04	7.38	6.88	6.08	C=CC(=O)N1CCC(N[C@H]2CCc3cc(-n4c(-c5cccnc5N)nc5ccc(-n6ccc(C7CCC7)n6)nc54)ccc32)CC1 [Example 283, 1-(4-{[(1S)-5-[2-(2-aminopyridin-3-yl)-5-(3-cyclobutylpyrazol-1-yl)imidazo[4,5-b]pyridin-3-yl]-2,3-dihydro-1H-inden-1-yl]amino}piperidin-1-yl)prop-2-en-1-one]
–	< 6.00	< 5.00	6.52	< 5.00	C=CC(=O)N1CCC(N[C@H]2CCCc3cc(-n4c(-c5cccnc5N)nc5ccc(-n6cccn6)nc54)ccc32)CC1 [Example 154, (S)-1-(4-((6-(2-(2-aminopyridin-3-yl)-5-(1H-pyrazol-1-yl)-3H-imidazo[4,5-b]pyridin-3-yl)-1,2,3,4-tetrahydronaphthalen-1-yl)amino)piperidin-1-yl)prop-2-en-1-one]
–	8.15	7.45	7.31	6.94	C=CC(=O)N1CCC(N[C@H]2CCc3cc(-n4c(-c5cccnc5N)nc5ccc(-c6ccccn6)nc54)ccc32)CC1 [Example 207, (S)-1-(4-((5-(2-(2-aminopyridin-3-yl)-5-(pyridin-2-yl)-3H-imidazo[4,5-b]pyridin-3-yl)-2,3-dihydro-1H-inden-1-yl)amino)piperidin-1-yl)prop-2-en-1-one]
–	7.26	6.67	7.76	6.96	C=CC(=O)N1CCC(N[C@H]2CCc3cc(-n4c(-c5cccnc5N)nc5ccc(-n6cccn6)nc54)ccc32)C(C#N)C1 (stereo partly drawn) [Example 157, (3*,4*)-1-acryloyl-4-(((S)-5-(2-(2-aminopyridin-3-yl)-5-(1H-pyrazol-1-yl)-3H-imidazo[4,5-b]pyridin-3-yl)-2,3-dihydro-1H-inden-1-yl)amino)piperidine-3-carbonitrile]
–	7.27	6.80	7.70	6.84	C=CC(=O)N1CC2COCC(C1)C2N[C@H]1CCc2cc(-n3c(-c4cccnc4N)nc4ccc(-n5cccn5)nc43)ccc21 (mixture of isomers) [Example 64, 1-(9-(((S)-5-(2-(2-aminopyridin-3-yl)-5-(1H-pyrazol-1-yl)-3H-imidazo[4,5-b]pyridin-3-yl)-2,3-dihydro-1H-inden-1-yl)amino)-3-oxa-7-azabicyclo[3.3.1]nonan-7-yl)prop-2-en-1-one]
–	7.64	6.93	7.73	6.72	C=CC(=O)Nc1cccc(C(=O)N[C@H]2CCc3cc(-n4c(-c5cccnc5N)nc5ccc(-n6cccn6)nc54)ccc32)c1 [Example 2, (S)-3-acrylamido-N-(5-(2-(2-aminopyridin-3-yl)-5-(1H-pyrazol-1-yl)-3H-imidazo[4,5-b]pyridin-3-yl)-2,3-dihydro-1H-inden-1-yl)benzamide]

SMILES	pIC50 ([1]; 72 h)	pIC50 (AKT1 E17K)	pIC50 (AKT2)	pIC50 (AKT1 WT)	pIC50 ([1]; Homo sapiens, LAPC4, 72 h)
C=CC(=O)N1C[C@H]2C[C@@H](C1)C2N[C@H]1CCc2cc(-n3c(-c4cccnc4N)nc4ccc(-n5cccn5)nc43)ccc21 (single isomer, unassigned) [Example 60, 1-((1R,5S,6*)-6-(((S)-5-(2-(2-aminopyridin-3-yl)-5-(1H-pyrazol-1-yl)-3H-imidazo[4,5-b]pyridin-3-yl)-2,3-dihydro-1H-inden-1-yl)amino)-3-azabicyclo[3.1.1]heptan-3-yl)prop-2-en-1-one]	5.86	6.39	5.77	< 6.00	–
